The results in this text go back to patent publication US20120135864A1, “POLLINATION IMPROVER” (TAMINCO, NAAMLOZE VENNOOTSCHAP, priority 2009, published 2012).

SMILES strings stand for the structures.

Holding throughout (format): in vivo
One assay relates to Glycine max (SOYBEAN). In words: Soybean pot trial under glasshouse conditions: seed yield and thousand seed weight. The settings on record: for Seed Yield (%) T1 Timing / Seed Yield (%) T2 Timing: relative to untreated; for Seed Yield (g per Pot) T1 Timing: sprayed at T1 (Growth Stage R1: first flowering); for Seed Yield (g per Pot) T2 Timing: sprayed at T2 (Growth Stage R3). The protocol:
(§1) The applied concentration of the composition of the present invention can vary widely depending on the water volume applied to plants as well as other factors such as plant age and size, and plant sensitivity to the final seed yield and crop quality improver. […] The rate of other components such as spreaders and stickers can be 50-200 ml per ha. The rate of cytokinin can typically be 0.001 to 1.0 percent of the formulation. […] ADD=at least one from class (f) each at <3 g/l, plus at least one from class (c). Winter Barley: […] Harvested: 28 July. […] Harvested: 28 July. Navy Bean: […] Harvested: 28 August. […] Harvested: 28 August. Statistical Layout: Randomised Complete Block trial, under glasshouse conditions, United Kingdom.

Assay [1] has as its system Phaseolus vulgaris (NAVY BEAN) cv Primel. In words: Navy bean pot trial under glasshouse conditions: seed yield and seed weight. Particulars: for Seed Yield (%) T1 Timing / Seed Yield (%) T2 Timing: relative to untreated; for Seed Yield (g per Pot) T1 Timing: sprayed at T1 (Growth Stage R1: first flowering); for Seed Yield (g per Pot) T2 Timing: sprayed at T2 (Growth Stage R3). The protocol: as §1

Another assay deals with Winter Wheat cv Limerick. In words: Winter wheat pot trial under glasshouse conditions: grain yield and thousand grain weight. The settings on record: for Grain Yield (%) T1 Timing / Grain Yield (%) T2 Timing: relative to untreated; for Grain Yield (g per Pot) T1 Timing: sprayed at T1 (Growth Stage 52: one quarter ear emergence); for Grain Yield (g per Pot) T2 Timing: sprayed at T2 (Growth Stage 65-69: at time of anthesis). How it is done: as §1

The test system of a further assay is Winter Barley cv Carat. Briefly: Winter barley pot trial under glasshouse conditions: grain yield and thousand grain weight. Particulars: for Grain Yield (%) T1 Timing / Grain Yield (%) T2 Timing: untreated = 100; for Grain Yield (g per Pot) T1 Timing: sprayed at T1 (Growth Stage 52: one quarter ear emergence); for Grain Yield (g per Pot) T2 Timing: sprayed at T2 (Growth Stage 65-69: at time of anthesis). The protocol:
as §1

Assay [2] relates to Winter Barley (Mean of 3 Varieties). In words: Grain quality improvement pot trial, winter barley. An excerpt:
(§2) Thousand grain weight, specific weight and % screenings are different aspects of crop quality. For example, specific weight (bushel weight) is the weight of a given volume of grain, expressed in kg/hl. For example, growers have to meet standards of 76 for wheat and 64 for barley in order to meet minimum quality requirements. Varieties with the highest values are those most likely to produce acceptable grain lots. Aspects of crop quality for different varieties of crops are found in The Pocket Guide to Varieties of Cereals, Oilseeds and Pulses (NIAB Association). Other quality standards include, but are not limited to, endosperm texture, protein content (%), Hagberg falling number, Zeleny volume (cc), Chopin Alveograph, malt extract, IBD approval—brewing, IBD approval—distilling, IBD approval—grain distilling, sieving %<2.25 mm, sieving %<2.5 mm, nitrogen content, kernel content, sieving %<2.0 mm, oil content (%), oil type, hilum colour, overseas malting, hot water extract, and seed colour. Examples of % screenings are 2.2 mm and 2.5 mm. Such measures can be used in determining the effect provided by the present invention.
(§3) The TAMPF formulation example in these experiments included AN+AC+ADD, applied at the rate of 1 litre per hectare. ADD=at least one from class (f) each at <3 g/l, plus at least one from class (c).
(§4) Trials information: grown in pots in standard multi-purpose compost of pH 6.5, at 6/7 seeds per 9 cm pot (winter wheat), or 5/6 seeds per 9 cm pot (winter barley). Sprayed at the start of the anthesis growth stage (=shortly after ear emergence: GS60)

The test system of assay [3] is Winter Wheat (Mean of 3 Varieties). Briefly: Grain quality improvement pot trial, winter wheat.
Description: as §2, §3, §4

Where [4] appears, read: sprayed at start of anthesis (GS60).

Regarding `CC(=O)Nc1ccc(O)cc1` [AC, N-(4-hydroxypheyl)acetamide, reference compound], the “Seed Yield (%) T1 Timing” value was 101.8% in the assay on Glycine max (SOYBEAN) (T1 (Growth Stage R1)) and 98.0% in assay [1] (T1 (Growth Stage R1)). In addition, the figures for the “Seed Yield (%) T2 Timing” value (in the assay on Glycine max (SOYBEAN) (T2 (Growth Stage R3)); in assay [1] (T2 (Growth Stage R3))) were 101.8% and 99.8%, respectively. Also, the “Seed Yield (g per Pot) T1 Timing” value with Glycine max (SOYBEAN) was determined as 33.5 g per Pot; in assay [1] it was 53.3 g per Pot. The “Seed Yield (g per Pot) T2 Timing” value came out at 33.5 g per Pot in the assay with Glycine max (SOYBEAN) and 54.3 g per Pot in assay [1]. The “Grain Yield (%) T1 Timing” value worked out at 98.0% with Winter Wheat cv Limerick (T1 (Growth Stage 52)) and 102.8% in the assay with Winter Barley cv Carat (T1 (Growth Stage 52)). Moreover, the figures for the “Grain Yield (%) T2 Timing” value in the assay with Winter Wheat cv Limerick (T2 (Growth Stage 65-69)) and in the assay with Winter Barley cv Carat (T2 (Growth Stage 65-69)) were 103.7% and 98.8%, respectively. For the same molecule, the “Grain Yield (g per Pot) T1 Timing” value is 29.3 g per Pot in the assay with Winter Wheat cv Limerick and 25.5 g per Pot in the assay with Winter Barley cv Carat. For the same molecule, the “Grain Yield (g per Pot) T2 Timing” value in the assay with Winter Wheat cv Limerick was 31.0 g per Pot; in the assay with Winter Barley cv Carat it was 24.5 g per Pot.
In the case of `Nc1ccccc1C(=O)O` [AN, anthranilic acid], the “Seed Yield (%) T1 Timing” value in the assay on Glycine max (SOYBEAN) (T1 (Growth Stage R1)) was 99.7%; in assay [1] (T1 (Growth Stage R1)), 102.0%. For the same molecule, the “Seed Yield (%) T2 Timing” value in the assay on Glycine max (SOYBEAN) (T2 (Growth Stage R3)) is reported as 101.2%; in assay [1] (T2 (Growth Stage R3)), 98.0%. Besides, the “Seed Yield (g per Pot) T1 Timing” value with Glycine max (SOYBEAN) is 32.8 g per Pot; in assay [1] it was 55.5 g per Pot. Moreover, the “Seed Yield (g per Pot) T2 Timing” value with Glycine max (SOYBEAN) is on record as 33.3 g per Pot; in assay [1], 53.3 g per Pot. Also, the “Grain Yield (%) T1 Timing” value with Winter Wheat cv Limerick (T1 (Growth Stage 52)) turned out to be 99.7%; with Winter Barley cv Carat (T1 (Growth Stage 52)) it was 96.8%. Besides, the “Grain Yield (%) T2 Timing” value in the assay with Winter Wheat cv Limerick (T2 (Growth Stage 65-69)) turned out to be 98.7%; in the assay on Winter Barley cv Carat (T2 (Growth Stage 65-69)), 98.8%. The “Grain Yield (g per Pot) T1 Timing” value with Winter Wheat cv Limerick stood at 29.8 g per Pot; with Winter Barley cv Carat it was 24.0 g per Pot. Moreover, the “Grain Yield (g per Pot) T2 Timing” value was found to be 29.5 g per Pot with Winter Wheat cv Limerick and 24.5 g per Pot with Winter Barley cv Carat.
On to `O=S(O)(O)=S` [Thiosulphate], for which, in the assay with Glycine max (SOYBEAN) (T1 (Growth Stage R1)), the “Thousand Seed Weight (g) T1 Timing” value was 160 g. Also, the entries for the “Seed Yield (%) T1 Timing” value (in the assay with Glycine max (SOYBEAN) (T1 (Growth Stage R1)); in assay [1] (T1 (Growth Stage R1))) were 108.8% and 108.6%, respectively. Further, the “Thousand Seed Weight (g) T2 Timing” value with Glycine max (SOYBEAN) (T2 (Growth Stage R3)) came out at 159 g. Further, the figures for the “Seed Yield (%) T2 Timing” value (in the assay on Glycine max (SOYBEAN) (T2 (Growth Stage R3)); in assay [1] (T2 (Growth Stage R3))) were 110.3% and 109.9%, respectively. Besides, the entries for the “Seed Yield (g per Pot) T1 Timing” value (in the assay on Glycine max (SOYBEAN); in assay [1]) were 35.8 g per Pot and 59.1 g per Pot, respectively. Moreover, the “Seed Yield (g per Pot) T2 Timing” value with Glycine max (SOYBEAN) stood at 36.3 g per Pot; in assay [1], 59.8 g per Pot. The “Indiv Seed Weight (mg) T1 Timing” value in assay [1] (T1 (Growth Stage R1)) came out at 276 mg. Moreover, in assay [1] (T2 (Growth Stage R3)), the “Indiv Seed Weight (mg) T2 Timing” value was determined as 275 mg. The “Thousand Grain Weight (g) T1 Timing” value came to 50.4 g with Winter Wheat cv Limerick (T1 (Growth Stage 52)) and 46.5 g with Winter Barley cv Carat (T1 (Growth Stage 52)). The “Grain Yield (%) T1 Timing” value in the assay with Winter Wheat cv Limerick (T1 (Growth Stage 52)) came out at 108.4%; in the assay with Winter Barley cv Carat (T1 (Growth Stage 52)) it was 102.8%. The “Thousand Grain Weight (g) T2 Timing” value in the assay on Winter Wheat cv Limerick (T2 (Growth Stage 65-69)) came out at 50.7 g; with Winter Barley cv Carat (T2 (Growth Stage 65-69)), 46.4 g. The “Grain Yield (%) T2 Timing” value with Winter Wheat cv Limerick (T2 (Growth Stage 65-69)) is listed as 111.7%; in the assay with Winter Barley cv Carat (T2 (Growth Stage 65-69)), 102.4%. The “Grain Yield (g per Pot) T1 Timing” value in the assay on Winter Wheat cv Limerick was determined as 32.4 g per Pot; in the assay with Winter Barley cv Carat, 25.5 g per Pot. Also, the “Grain Yield (g per Pot) T2 Timing” value is reported as 33.4 g per Pot in the assay with Winter Wheat cv Limerick and 25.4 g per Pot with Winter Barley cv Carat. Besides, the “% Screenings (2.2 mm)” value in assay [2] (sprayed at GS60, 2.2 mm) is reported as 4.8%; in assay [3] (sprayed at GS60, 2.2 mm), 4.5%. For the same molecule, the “% Screenings (2.5 mm)” value is 7.3% in assay [2] (sprayed at GS60, 2.5 mm) and 8.0% in assay [3] (sprayed at GS60, 2.5 mm). For the same molecule, the “Specific Weight (kg/hl)” value in assay [2] (setting [4]) is listed as 68.3 kg/hl; in assay [3] (setting [4]) it was 74.0 kg/hl.
